The numbers were not newly measured in patent US11382851B2, “Hair dye composition containing at least one organic silicon compound, a direct dye and a film forming hydrophobic polymer” (Henkel AG & Co. KGaA, priority 2018, dated 2022), which cites them from elsewhere.

The conditions of the data set: about 25° C.

For the compound `O=C([O-])C1=NN(c2ccc(S(=O)(=O)[O-])cc2)C(=O)C1N=Nc1ccc(S(=O)(=O)[O-])cc1.[Na+].[Na+].[Na+]` (centres unmarked) [Acid Yellow 23, trisodium salt of 4,5-dihydro-5-oxo-1-(4-sulfophenyl)-4-((4-sulfophenyl)azo)-1H-pyrazole-3-carboxylic acid], the “solubility in water (in words)” value is “highly soluble in water”. As for `CCN(Cc1cccc(S(=O)(=O)[O-])c1)c1ccc(C(=C2C=CC(=[N+](CC)Cc3cccc(S(=O)(=O)[O-])c3)C=C2)c2ccccc2S(=O)(=O)[O-])cc1.[Na+].[Na+]` [Acid Blue 9], the solubility in water entry is listed as “more than 20 % by weight”. Regarding `Nc1cc(S(=O)(=O)[O-])cc2cc(S(=O)(=O)[O-])c(N=Nc3ccccc3)c(O)c12.[Na+].[Na+]` [Acid Red 33, disodium salt of 5-amino-4-hydroxy-3-(phenylazo)-naphthalene-2,7-disulphonate], the solubility in water entry was “about 2.5 g/L”. Regarding `O=S(=O)([O-])c1ccc(N=Nc2c(O)ccc3ccccc23)cc1.[Na+]` [Acid Orange 7, sodium salt of 4-[(2-hydroxy-1-naphthyl)azo]benzene sulphonate], the solubility in water entry was “more than 7 g/L”.

In the case of `O=C([O-])c1c(Cl)c(Cl)c(Cl)c(Cl)c1-c1c2c(Br)cc(=O)c(Br)c-2oc2c(Br)c(O)cc(Br)c12.O=C([O-])c1c(Cl)c(Cl)c(Cl)c(Cl)c1-c1c2c(Br)cc(=O)c(Br)c-2oc2c(Br)c(O)cc(Br)c12.[Na+].[Na+]` [Acid Red 92, disodium salt of 3,4,5,6-tetrachloro-2-(1,4,5,8-tetrabromo-6-hydroxy-3-oxoxanthen-9-yl)benzoic acid], the solubility in water entry is recorded as “greater than 10 g/L”.
